{"source": "patent US20140094366A1", "about": "“SYNERGISTIC WEED CONTROL FROM APPLICATIONS OF AMINOCYCLOPYRACHLOR AND FLUROXYPYR” (Dow AgroSciences LLC, priority 2012, published 2014)", "assay_in_all_cases": "Field trial, post-emergence foliar weed control", "format_in_all_cases": "in vivo", "key": {"[1]": {"test_system": "calvary clover (Medicago arabica, MEDAB)", "settings": "27 DAYS, alone", "from_the_text": "(§1) The (a) aminocyclopyrachloror an agriculturally acceptable salt or ester thereof is mixed with or applied in combination with (b) fluoroxypyr or an agriculturally acceptable salt or ester thereof in an amount sufficient to induce a synergistic herbicidal effect. […] As described in the Herbicide Handbook of the Weed Science Society of America, Ninth Edition, 2007, p. 429, “‘synergism’ [is] an interaction of two or more factors such that the effect when combined is greater than the predicted effect based on the response to each factor applied separately.” Synergistic in the herbicide context can mean that the use of (a) and (b) as defined above results in an increased weed control effect compared to the weed control effects that are possible with the use of (a) or (b) alone. In some embodiments, the damage or injury to the undesired vegetation caused by the compositions and methods disclosed herein is evaluated using a scale from 0% to 100%, when compared with the untreated control vegetation, wherein 0% indicates no damage to the undesired vegetation and 100% indicates complete destruction of the undesired vegetation. […] 22 (1967)\n(§2) Field trials were conducted with applications made to established grassland with naturally occurring weed populations, or applications were made to bare ground with naturally occurring weed populations. The target plants were treated with postemergence foliar applications after they had reached at least 3-4 leaves or at least 2-5 inches in height. All treatments were applied using a randomized complete block trial design, with 3-4 replications per treatment.\n(§3) Treatments consisted of aminocyclopyrachlor in acid form and fluoroxypyr-meptyl, each in water and applied alone or in combination. Spray solutions were prepared using an appropriate amount of dilution to form a 2 liter (L) aqueous spray solution with active ingredients in single and two way combinations. Formulated compounds were applied to the plant material with a backpack sprayer equipped with 8003 or Turbojet nozzles calibrated to deliver 187 liters per hectare (L/ha) to 400 L/ha at a spray height of 18-20 inches (43-50 centimeters (cm)) above average plant canopy or ground.\n(§4) The treated plants were shepherd's purse (Capsella bursa-pastoris, CAPBP), common fiddleneck (Amsinckia menziesii, AMSIN), wild oat (Avena fatua, AVEFA), cat's ear dandelion (Hypochaeris radicata, HRYRA), yellow star thistle (Centaurea solstitialis, CENSO), common guava (Psidium guajava, PSIGU), buckhorn plantain (Plantago lanceolata, PLALA), and calvary clover (Medicago arabica, MEDAB). The treated plots and control plots were rated blind at various intervals after application. Ratings were based on a scale of 0-100%, as discussed above, wherein 0% indicates no damage to the undesired vegetation and 100% indicates complete destruction of the undesired vegetation.\n(§5) Colby's equation was used to determine the herbicidal effects expected from the mixtures, as described above. The results were measured at 11 days, 17 days, 24 days, 27 days, 37 days, 70 days, 76 days, and 88 days after the first application of the compositions. […] The herbicide tank mix combinations tested, application rates and ratios employed, plant species tested, and results are given below."}, "[2]": {"test_system": "common fiddleneck (Amsinckia menziesii, AMSIN)", "settings": "alone; for Fluroxypyr-meptyl Mean % weed control: 70 g ae/ha; for Aminocyclopyrachlor Mean % weed control: 18 g ae/ha", "from_the_text": "as §1, §2, §3, §4, §5"}, "[3]": {"test_system": "wild oat (Avena fatua, AVEFA)", "settings": "11 DAYS, alone", "from_the_text": "as §1, §2, §3, §4, §5"}, "[4]": {"test_system": "buckhorn plantain (Plantago lanceolata, PLALA)", "settings": "27 DAYS, 18 g ae/ha, alone", "from_the_text": "as §1, §2, §3, §4, §5"}, "[5]": {"test_system": "cat's ear dandelion (Hypochaeris radicata, HRYRA)", "settings": "alone", "from_the_text": "as §1, §2, §3, §4, §5"}, "[6]": {"test_system": "common guava (Psidium guajava, PSIGU)", "settings": "alone", "from_the_text": "as §1, §2, §3, §4, §5"}, "[7]": {"test_system": "yellow star thistle (Centaurea solstitialis, CENSO)", "settings": "37 DAYS, alone", "from_the_text": "as §1, §2, §3, §4, §5"}, "[8]": {"test_system": "shepherd's purse (Capsella bursa-pastoris, CAPBP)", "settings": "alone", "from_the_text": "as §1, §2, §3, §4, §5"}}}
{"smiles": "CCCCCCC(C)OC(=O)COc1nc(F)c(Cl)c(N)c1Cl", "note": "(stereo not drawn) [Fluroxypyr-meptyl]", "values": [{"measurement": "Fluroxypyr-meptyl Mean % weed control", "setting": "[1]; 18 g ae/ha", "result": 11.25, "unit": "%"}, {"measurement": "Fluroxypyr-meptyl Mean % weed control", "setting": "[1]; 35 g ae/ha", "result": 7.5, "unit": "%"}, {"measurement": "Fluroxypyr-meptyl Mean % weed control", "setting": "[1]; 70 g ae/ha", "result": 47.5, "unit": "%"}, {"measurement": "Fluroxypyr-meptyl Mean % weed control", "setting": "[2]; 17 DAYS", "result": 3.33, "unit": "%"}, {"measurement": "Fluroxypyr-meptyl Mean % weed control", "setting": "[2]; 24 DAYS", "result": 3.33, "unit": "%"}, {"measurement": "Fluroxypyr-meptyl Mean % weed control", "setting": "[3]; 70 g ae/ha", "result": 1, "unit": "%"}, {"measurement": "Fluroxypyr-meptyl Mean % weed control", "setting": "[4]", "result": 10, "unit": "%"}, {"measurement": "Fluroxypyr-meptyl Mean % weed control", "setting": "[5]; 11 DAYS, 70 g ae/ha", "result": 0, "unit": "%"}, {"measurement": "Fluroxypyr-meptyl Mean % weed control", "setting": "[5]; 37 DAYS, 18 g ae/ha", "result": 0.5, "unit": "%"}, {"measurement": "Fluroxypyr-meptyl Mean % weed control", "setting": "[5]; 37 DAYS, 70 g ae/ha", "result": 3, "unit": "%"}, {"measurement": "Fluroxypyr-meptyl Mean % weed control", "setting": "[5]; 70 DAYS, 70 g ae/ha", "result": 1.75, "unit": "%"}, {"measurement": "Fluroxypyr-meptyl Mean % weed control", "setting": "[6]; 76 DAYS, 80 g ae/ha", "result": 4.8, "unit": "%"}, {"measurement": "Fluroxypyr-meptyl Mean % weed control", "setting": "[6]; 76 DAYS, 240 g ae/ha", "result": 16.3, "unit": "%"}, {"measurement": "Fluroxypyr-meptyl Mean % weed control", "setting": "[6]; 88 DAYS, 80 g ae/ha", "result": 4.8, "unit": "%"}, {"measurement": "Fluroxypyr-meptyl Mean % weed control", "setting": "[6]; 88 DAYS, 240 g ae/ha", "result": 16.3, "unit": "%"}, {"measurement": "Fluroxypyr-meptyl Mean % weed control", "setting": "[7]; 70 g ae/ha", "result": 22.5, "unit": "%"}, {"measurement": "Fluroxypyr-meptyl Mean % weed control", "setting": "[8]; 17 DAYS, 35 g ae/ha", "result": 6.67, "unit": "%"}, {"measurement": "Fluroxypyr-meptyl Mean % weed control", "setting": "[8]; 17 DAYS, 70 g ae/ha", "result": 13.33, "unit": "%"}, {"measurement": "Fluroxypyr-meptyl Mean % weed control", "setting": "[8]; 24 DAYS, 70 g ae/ha", "result": 8.33, "unit": "%"}]}
{"smiles": "Nc1nc(C2CC2)nc(C(=O)O)c1Cl", "note": "[Aminocyclopyrachlor, 6-amino-5-chloro-2-cyclopropylpyrimidine-4-carboxylic acid]", "values": [{"measurement": "Aminocyclopyrachlor Mean % weed control", "setting": "[1]; 18 g ae/ha", "result": 27.5, "unit": "%"}, {"measurement": "Aminocyclopyrachlor Mean % weed control", "setting": "[1]; 35 g ae/ha", "result": 47.5, "unit": "%"}, {"measurement": "Aminocyclopyrachlor Mean % weed control", "setting": "[2]; 17 DAYS", "result": 0, "unit": "%"}, {"measurement": "Aminocyclopyrachlor Mean % weed control", "setting": "[2]; 24 DAYS", "result": 0, "unit": "%"}, {"measurement": "Aminocyclopyrachlor Mean % weed control", "setting": "[3]; 35 g ae/ha", "result": 0, "unit": "%"}, {"measurement": "Aminocyclopyrachlor Mean % weed control", "setting": "[4]", "result": 22.5, "unit": "%"}, {"measurement": "Aminocyclopyrachlor Mean % weed control", "setting": "[5]; 11 DAYS, 35 g ae/ha", "result": 1.75, "unit": "%"}, {"measurement": "Aminocyclopyrachlor Mean % weed control", "setting": "[5]; 37 DAYS, 18 g ae/ha", "result": 28.75, "unit": "%"}, {"measurement": "Aminocyclopyrachlor Mean % weed control", "setting": "[5]; 70 DAYS, 18 g ae/ha", "result": 36.25, "unit": "%"}, {"measurement": "Aminocyclopyrachlor Mean % weed control", "setting": "[6]; 76 DAYS, 50 g ae/ha", "result": 7.5, "unit": "%"}, {"measurement": "Aminocyclopyrachlor Mean % weed control", "setting": "[6]; 76 DAYS, 150 g ae/ha", "result": 48.3, "unit": "%"}, {"measurement": "Aminocyclopyrachlor Mean % weed control", "setting": "[6]; 88 DAYS, 50 g ae/ha", "result": 7.5, "unit": "%"}, {"measurement": "Aminocyclopyrachlor Mean % weed control", "setting": "[6]; 88 DAYS, 150 g ae/ha", "result": 57.5, "unit": "%"}, {"measurement": "Aminocyclopyrachlor Mean % weed control", "setting": "[7]; 18 g ae/ha", "result": 57.5, "unit": "%"}, {"measurement": "Aminocyclopyrachlor Mean % weed control", "setting": "[8]; 17 DAYS, 18 g ae/ha", "result": 23.33, "unit": "%"}, {"measurement": "Aminocyclopyrachlor Mean % weed control", "setting": "[8]; 17 DAYS, 35 g ae/ha", "result": 50, "unit": "%"}, {"measurement": "Aminocyclopyrachlor Mean % weed control", "setting": "[8]; 24 DAYS, 35 g ae/ha", "result": 50, "unit": "%"}]}
